Tests used:
PCSK9/LDLR complex = assay: PCSK9/LDLR protein complementation assay (PCA) in transfected HEK293 cells; type: cell-based, human
Method: In one of the embodiments of the invention, the cell-based assay consists of transfected cDNAs encoding full-length PCSK9 and LDL receptor, each sequence linked in-frame to rationally designed fragments of a variant of green fluorescent protein. These two plasmid constructs were co-expressed in human HEK cells plated in 384-well poly-lysine coated plates. After 24-48 hours of incubation, drugs (or vehicle controls) were added to the media, and the existence and localization of PCSK9/LDL receptor complexes was quantified on an Opera automated confocal fluorescence microscopy platform (Perkin Elmer). Images were subjected to automated image analysis, and results quantified and subjected to statistical analysis.
HEK 293T cells were seeded in normal growth media containing DMEM and 10% FBS at 1.5×10^4 in PDL-coated 96-well plates 24 hours prior to transfection. Cells were transfected with 50 ng of each construct DNA per well with Fugene 6, using conditions recommended by the manufacturer. Cells were allowed to express the construct pairs for 24- or 48 h, then the cells were simultaneously fixed and stained with either a 1:300 dilution of Hoescht 33342 (Molecular Probes, Eugene, Oreg.) or a 1:1000 dilution of Draq5 (Biostatus, Shepshed, Leicestershire, U.K.) in 4% formaldehyde for 15 minutes at room temperature. The cells were washed to remove fixative, and overlaid with a small volume of Hank's Buffered Salt Solution. Images were acquired on a Discovery-1 (Molecular Devices) epifluorescence microscope using the 20× objective, and DAPI and FITC filter sets. (with excitation at 350 and 488 nm wave lengths) or on an Opera (Perkin Elmer) confocal microscope using the 20× water objective with the following excitation and emission settings: Ex 488 nm/Em 535 nm (YFP) and Ex 635 nm/Em 640 nm (Draq5).
To test for in vitro PCSK9 function and activity, we developed a protein complementation assay (PCA) with PCSK9-IFP2 and the LDL-IFP1 receptor (PCSK9/LDLR). Expression of wild type PCSK9-IFP2 in transfected HEK293 cells was confirmed by Western blot using an antibody against YFP (FIG. 2). Cotranfection of HEK cells with increasing ratios of PCSK9-IFP2 and LDLR-IFP1 DNA constructs results in increased PCA signal (FIG. 3) but not when each construct is expressed alone. The intracellular localization of the wild-type PCSK9-IFP2/LDLR-IFP1 PCA interaction is similar to the known localization of wild type PCSK9 in the endoplasmic reticulum (ER) and post-ER compartments in various cell types (20, 21). The PCA signal for the PCSK9-IFP2/LDLR-IFP1 pair appears to be localized to multiple intracellular trafficking sites including the ER, endosomes and the cell surface.
In order to test the viability of using the PCSK9-IFP2/LDLR-IFP1 PCA as a drug discovery tool, we tested a drug plate containing 50 known drugs at 3 doses in the assay (Table 10) as well as several protein kinase inhibitors (representative compounds are depicted in Table 11). […] We observed the following effects of known compounds on the PCSK9/LDLR complex:
A collection of small molecular weight compounds was screened. […] To expand on this observation, we characterized the effects of a larger panel of kinase inhibitors on the PCSK9/LDLr complex. 47 compounds representing a broad range of known receptor tyrosine and serine-threonine kinase inhibitors were assessed (table 2). A subset was identified that had inhibitory effects on the PCSK9/LDLr complex (degree of assay inhibition relative to control is indicated by “% control”, Table 2).

HepG2 cells = assay: LDL uptake in HepG2 cells (human LDL conjugated to DyLight 549); type: cell-based; conditions: for x-fold increase (hepatic LDL uptake): HepG2; for % Control (Table 5, titled LDL uptake in Hepg2 cells): values repeat Table 2; for effect on LDL uptake (in words): HepG2, 10 μM
Source text: The assay uses human LDL conjugated to DyLight™ 549 as a fluorescent probe for detection of LDL uptake into HepG2 cells.
We assessED whether compounds that inhibit the PCSK9/LDLr assay would have activity on LDL uptake and metabolism in a relevant cell type. PCSK9 is thought to be a negative regulator of LDLr. Thus, we predicted that compounds inhibiting the PCSK9 PCA signal would increase LDL receptor expression and LDL uptake. An assay using human LDL conjugated to DyLight™ 549 as a fluorescent probe for detection of LDL uptake into cultured human hepatocytes. A separate assay, using an LDL receptor-specific polyclonal antibody and a DyLight™ 488-conjugated secondary antibody, was also performed to localize LDL receptors
Quantitation of the increased LDL uptake of these and other kinase inhibitors targeting Akt, mTOR, p38, GSK3 and VEGF is shown in Table 4.

Compound: COc1cc2c(Nc3ccc(Br)cc3F)ncnc2cc1OCC1CCN(C)CC1 [Vandetanib]
- % Control (PCSK9/LDLr PCA) (PCSK9/LDLR complex; dose 100 μM): 39%
- x-fold increase (LDL uptake in Hepg2 cells) (HepG2 cells; dose 1 μM): 1.5 x-fold
- x-fold increase (hepatic LDL uptake) (HepG2 cells; dose 1 µM): 1.5 x-fold
- x-fold increase (LDL uptake in Hepg2 cells) (HepG2 cells; dose 3 μM): 2.0 x-fold
- x-fold increase (hepatic LDL uptake) (HepG2 cells; dose 3 µM): 2.0 x-fold

Compound: CC(C)[C@H](CO)Nc1nc(Nc2cccc(Cl)c2)c2ncn(C(C)C)c2n1 [Purvalanol A]
- % Control (PCSK9/LDLr PCA) (PCSK9/LDLR complex; dose 15 μM): 52%
- % Control (Table 5, titled LDL uptake in Hepg2 cells) (HepG2 cells; dose 15 μM): 52%

Compound: Cc1ccc([N+](=O)[O-])cc1S(=O)(=O)N(C)/N=C/c1cnc2ccc(Br)cn12 [PI 3-Kalpha Inhibitor VIII, N-((1E)-(6-Bromoimidazo[1,2-a]pyridin-3-yl)methylene)-Nprime-methyl-Ndoubleprime-(2-methyl-5-nitrobenzene)sulfonohydrazide]
- % Control (PCSK9/LDLr PCA) (PCSK9/LDLR complex; dose 1 μM): 44%
- % Control (PCSK9/LDLr PCA) (PCSK9/LDLR complex; dose 3 μM): 39%
- % Control (PCSK9/LDLr PCA) (PCSK9/LDLR complex; dose 10 μM): 29%
- % Control (Table 5, titled LDL uptake in Hepg2 cells) (HepG2 cells; dose 1 μM): 44%
- % Control (Table 5, titled LDL uptake in Hepg2 cells) (HepG2 cells; dose 3 μM): 39%

Compound: CNC(=O)c1cc(Oc2ccc(NC(=O)Nc3ccc(Cl)c(C(F)(F)F)c3)cc2)ccn1 [Sorafenib]
- % Control (PCSK9/LDLr PCA) (PCSK9/LDLR complex; dose 3 μM): 57%
- % Control (PCSK9/LDLr PCA) (PCSK9/LDLR complex; dose 10 μM): 58%
- % Control (Table 5, titled LDL uptake in Hepg2 cells) (HepG2 cells; dose 3 μM): 57%
- % Control (Table 5, titled LDL uptake in Hepg2 cells) (HepG2 cells; dose 10 μM): 58%

Compound: Cc1ccc(NC(=O)c2ccc(CN3CCN(C)CC3)cc2)cc1Nc1nccc(-c2cccnc2)n1 [Imatinib]
- effect on formation of PCSK9/LDLR complexes / PCA signal (in words) (PCSK9/LDLR complex): inhibit the formation of PCSK9/LDLR complexes
- % Control (PCSK9/LDLr PCA) (PCSK9/LDLR complex; dose 10 μM): 55%
- effect on LDL uptake (in words) (HepG2 cells): dramatic increase in LDL uptake
- x-fold increase (LDL uptake in Hepg2 cells) (HepG2 cells; dose 3 μM): 2.4 x-fold
- x-fold increase (LDL uptake in Hepg2 cells) (HepG2 cells; dose 10 μM): 5.4 x-fold
- x-fold increase (hepatic LDL uptake) (HepG2 cells; dose 10 µM): 5.4 x-fold
- % Control (Table 5, titled LDL uptake in Hepg2 cells) (HepG2 cells; dose 10 μM): 55%
- x-fold increase (hepatic LDL uptake) (HepG2 cells; dose 3 µM): 2.4 x-fold

Compound: Indirubin-3′-Monoxime
- % Control (PCSK9/LDLr PCA) (PCSK9/LDLR complex; dose 10 μM): 64%
- % Control (Table 5, titled LDL uptake in Hepg2 cells) (HepG2 cells; dose 10 μM): 64%

Compound: CCOc1cc2ncc(C#N)c(Nc3ccc(OCc4ccccn4)c(Cl)c3)c2cc1NC(=O)/C=C/CN(C)C [Neratinib]
- % Control (PCSK9/LDLr PCA) (PCSK9/LDLR complex; dose 1 μM): 64%
- % Control (PCSK9/LDLr PCA) (PCSK9/LDLR complex; dose 3 μM): 61%
- effect on LDL uptake (in words) (HepG2 cells): dramatic increase in LDL uptake
- x-fold increase (LDL uptake in Hepg2 cells) (HepG2 cells; dose 10 μM): 2.2 x-fold
- x-fold increase (hepatic LDL uptake) (HepG2 cells; dose 10 µM): 2.2 x-fold

Compound: COc1cc2ncnc(Nc3ccc(Oc4ccccc4)cc3)c2cc1OC [Src Kinase Inhibitor I, 4-(4-prime-Phenoxyanilino)-6,7-dimethoxyquinazoline]
- % Control (PCSK9/LDLr PCA) (PCSK9/LDLR complex; dose 12.5 μM): 50%
- effect on LDL uptake (in words) (HepG2 cells): dramatic increase in LDL uptake
- x-fold increase (LDL uptake in Hepg2 cells) (HepG2 cells; dose 3 μM): 2.3 x-fold
- x-fold increase (LDL uptake in Hepg2 cells) (HepG2 cells; dose 10 μM): 5.1 x-fold
- x-fold increase (hepatic LDL uptake) (HepG2 cells; dose 10 µM): 5.1 x-fold
- % Control (Table 5, titled LDL uptake in Hepg2 cells) (HepG2 cells; dose 12.5 μM): 50%
- x-fold increase (hepatic LDL uptake) (HepG2 cells; dose 3 µM): 2.3 x-fold

From US20100081632A1, “High-content and high throughput assays for identification of lipid-regulating pathways, and novel therapeutic agents for lipid disorders” (Odyssey Thera, Inc., priority 2008, published 2010)
